The record followed here is ChEMBL document CHEMBL5465560, “Selectivity Literature for EUbOPEN Chemogenomic Library” (2024).

The target in experiment [1] is T1, Inhibitor of nuclear factor kappa-B kinase subunit epsilon (Homo sapiens) (UniProt Q14164).
T1 sequence (whole entry): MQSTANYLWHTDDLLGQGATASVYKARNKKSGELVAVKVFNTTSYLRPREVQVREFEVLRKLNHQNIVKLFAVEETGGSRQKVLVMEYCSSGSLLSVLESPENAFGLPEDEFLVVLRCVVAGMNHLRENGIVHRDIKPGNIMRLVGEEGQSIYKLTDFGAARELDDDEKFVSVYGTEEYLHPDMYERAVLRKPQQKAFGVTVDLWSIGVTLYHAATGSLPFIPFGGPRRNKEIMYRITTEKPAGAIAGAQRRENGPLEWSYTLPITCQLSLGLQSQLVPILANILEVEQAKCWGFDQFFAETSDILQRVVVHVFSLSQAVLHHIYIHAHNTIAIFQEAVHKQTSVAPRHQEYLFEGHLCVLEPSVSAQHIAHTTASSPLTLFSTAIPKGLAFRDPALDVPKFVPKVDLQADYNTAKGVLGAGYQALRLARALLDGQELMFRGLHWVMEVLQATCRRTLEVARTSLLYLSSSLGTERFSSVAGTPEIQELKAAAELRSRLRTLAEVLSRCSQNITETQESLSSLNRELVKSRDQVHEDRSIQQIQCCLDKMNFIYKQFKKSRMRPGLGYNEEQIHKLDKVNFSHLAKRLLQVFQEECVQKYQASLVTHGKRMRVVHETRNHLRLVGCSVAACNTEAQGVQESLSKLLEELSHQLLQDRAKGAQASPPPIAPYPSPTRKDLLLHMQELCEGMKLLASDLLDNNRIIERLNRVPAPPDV
In words: Selectivity interaction (Kinase panel (Z-LYTE Assay)) EUB0001632a IKBKE. Particulars: at 10 µM.

Experiment [2] has as its target T2, Serine/threonine-protein kinase TAO1 (Homo sapiens) (UniProt Q7L7X3).
T2 sequence (whole entry): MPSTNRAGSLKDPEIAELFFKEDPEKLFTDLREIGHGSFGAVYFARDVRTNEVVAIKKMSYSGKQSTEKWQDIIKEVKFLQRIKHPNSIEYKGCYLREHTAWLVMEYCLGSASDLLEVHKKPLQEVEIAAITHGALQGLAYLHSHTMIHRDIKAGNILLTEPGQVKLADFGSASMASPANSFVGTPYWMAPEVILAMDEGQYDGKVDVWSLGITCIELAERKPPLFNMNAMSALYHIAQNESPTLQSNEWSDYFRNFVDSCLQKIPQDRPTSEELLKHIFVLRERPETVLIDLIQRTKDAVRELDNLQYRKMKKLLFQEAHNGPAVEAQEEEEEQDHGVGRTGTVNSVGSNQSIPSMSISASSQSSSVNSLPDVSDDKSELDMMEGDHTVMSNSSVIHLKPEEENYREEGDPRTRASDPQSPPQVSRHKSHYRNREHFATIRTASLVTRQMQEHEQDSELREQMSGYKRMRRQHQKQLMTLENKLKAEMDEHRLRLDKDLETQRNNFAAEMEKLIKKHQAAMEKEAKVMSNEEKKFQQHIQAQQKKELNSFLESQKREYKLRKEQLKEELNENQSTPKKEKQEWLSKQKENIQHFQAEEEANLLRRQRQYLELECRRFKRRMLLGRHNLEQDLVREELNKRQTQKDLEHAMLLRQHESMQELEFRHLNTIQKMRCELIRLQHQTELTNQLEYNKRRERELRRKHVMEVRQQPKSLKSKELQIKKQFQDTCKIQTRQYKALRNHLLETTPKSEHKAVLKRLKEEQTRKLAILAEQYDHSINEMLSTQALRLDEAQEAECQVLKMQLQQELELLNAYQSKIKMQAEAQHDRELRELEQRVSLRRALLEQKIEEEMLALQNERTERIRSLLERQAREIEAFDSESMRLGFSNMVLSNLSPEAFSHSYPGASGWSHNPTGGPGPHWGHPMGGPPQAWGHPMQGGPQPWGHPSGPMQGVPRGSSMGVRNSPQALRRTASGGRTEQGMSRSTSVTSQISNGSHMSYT
Briefly: Selectivity interaction (KinomeScan (DiscoverX)) EUB0000595a TAOK1. Conditions: at 10 µM.

The target in experiment [3] is T3, Dual specificity mitogen-activated protein kinase kinase 3 (Homo sapiens) (UniProt P46734).
T3 sequence (whole entry): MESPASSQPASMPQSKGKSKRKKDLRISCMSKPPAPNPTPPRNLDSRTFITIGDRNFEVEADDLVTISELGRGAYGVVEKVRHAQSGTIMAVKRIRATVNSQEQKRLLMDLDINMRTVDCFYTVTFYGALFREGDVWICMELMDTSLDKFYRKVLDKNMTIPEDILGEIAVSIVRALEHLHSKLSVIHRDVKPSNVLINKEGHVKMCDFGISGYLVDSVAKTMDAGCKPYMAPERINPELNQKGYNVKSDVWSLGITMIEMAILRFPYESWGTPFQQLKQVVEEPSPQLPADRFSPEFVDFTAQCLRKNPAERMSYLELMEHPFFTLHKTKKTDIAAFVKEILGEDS
In words: Selectivity interaction (KinomeScan (DiscoverX)) EUB0001619a MAP2K3. Particulars: at 1 µM.

In experiment [4] the target is T4, Protein kinase C epsilon type (Homo sapiens) (UniProt Q02156).
T4 sequence (whole entry): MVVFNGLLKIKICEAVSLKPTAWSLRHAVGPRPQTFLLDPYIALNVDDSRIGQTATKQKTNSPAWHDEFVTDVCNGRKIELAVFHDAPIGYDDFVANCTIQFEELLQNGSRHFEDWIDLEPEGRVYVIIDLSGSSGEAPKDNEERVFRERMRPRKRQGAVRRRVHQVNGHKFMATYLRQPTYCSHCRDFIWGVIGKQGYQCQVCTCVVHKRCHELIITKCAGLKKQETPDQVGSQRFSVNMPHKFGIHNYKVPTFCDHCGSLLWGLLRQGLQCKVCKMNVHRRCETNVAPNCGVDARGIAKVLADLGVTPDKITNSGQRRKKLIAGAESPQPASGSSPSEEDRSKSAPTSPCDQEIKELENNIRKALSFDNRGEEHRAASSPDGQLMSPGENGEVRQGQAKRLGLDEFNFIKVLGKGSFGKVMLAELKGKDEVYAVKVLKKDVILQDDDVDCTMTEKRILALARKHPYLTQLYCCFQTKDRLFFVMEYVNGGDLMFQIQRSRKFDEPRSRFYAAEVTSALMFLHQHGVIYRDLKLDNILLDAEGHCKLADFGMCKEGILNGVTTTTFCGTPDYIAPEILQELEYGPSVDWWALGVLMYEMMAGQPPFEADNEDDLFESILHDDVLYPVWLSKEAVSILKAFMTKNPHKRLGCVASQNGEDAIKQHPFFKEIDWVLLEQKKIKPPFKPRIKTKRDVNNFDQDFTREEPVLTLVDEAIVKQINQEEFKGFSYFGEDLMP
Briefly: Selectivity interaction (Upstate Kinase Profiler service (Millipore)) EUB0000056c PRKCE. Conditions: at 1 µM.

The target in experiment [5] is Receptor-interacting serine/threonine-protein kinase 2 (Homo sapiens, UniProt O43353). In words: Selectivity interaction (Upstate Kinase Profiler service (Millipore)) EUB0000056c RIPK2. Conditions: at 1 µM.
For experiment [6], the system named is Receptor-type tyrosine-protein kinase FLT3 (Homo sapiens), P36888 [UNDEFINED MUTATION]. In words: Selectivity interaction (KinomeScan (DiscoverX)) EUB0001079a FLT3. Conditions: at 1 µM.

SMILES strings stand for the structures.

Chain of Receptor-type tyrosine-protein kinase FLT3 (Homo sapiens), P36888 [UNDEFINED MUTATION] (P36888 whole entry, looked up, change not shown): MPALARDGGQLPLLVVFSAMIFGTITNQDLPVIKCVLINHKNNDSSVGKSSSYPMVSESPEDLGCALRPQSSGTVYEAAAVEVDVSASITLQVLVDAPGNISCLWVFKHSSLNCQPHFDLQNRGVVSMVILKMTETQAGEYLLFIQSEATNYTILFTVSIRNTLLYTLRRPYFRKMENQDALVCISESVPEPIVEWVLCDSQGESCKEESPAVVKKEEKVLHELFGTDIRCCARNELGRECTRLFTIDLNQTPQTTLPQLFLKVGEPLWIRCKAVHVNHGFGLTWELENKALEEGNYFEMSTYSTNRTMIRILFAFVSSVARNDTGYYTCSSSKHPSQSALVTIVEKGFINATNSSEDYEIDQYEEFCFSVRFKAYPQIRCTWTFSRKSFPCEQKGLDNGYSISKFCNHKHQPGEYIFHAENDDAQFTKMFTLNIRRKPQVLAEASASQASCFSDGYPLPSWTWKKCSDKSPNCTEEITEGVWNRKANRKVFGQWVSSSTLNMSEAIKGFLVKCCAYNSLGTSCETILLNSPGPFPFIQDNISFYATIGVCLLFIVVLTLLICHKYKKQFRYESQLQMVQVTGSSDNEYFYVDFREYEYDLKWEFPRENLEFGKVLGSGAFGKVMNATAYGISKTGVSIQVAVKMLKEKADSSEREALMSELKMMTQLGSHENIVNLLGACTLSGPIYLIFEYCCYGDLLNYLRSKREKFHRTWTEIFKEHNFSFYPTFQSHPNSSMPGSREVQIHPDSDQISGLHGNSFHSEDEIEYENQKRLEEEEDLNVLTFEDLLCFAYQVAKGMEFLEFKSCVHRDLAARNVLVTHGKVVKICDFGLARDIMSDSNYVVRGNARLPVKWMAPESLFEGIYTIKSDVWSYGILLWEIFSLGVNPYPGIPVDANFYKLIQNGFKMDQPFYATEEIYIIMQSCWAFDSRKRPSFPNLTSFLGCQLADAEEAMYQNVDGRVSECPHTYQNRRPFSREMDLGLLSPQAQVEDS
Chain of Receptor-interacting serine/threonine-protein kinase 2 (O43353 whole entry): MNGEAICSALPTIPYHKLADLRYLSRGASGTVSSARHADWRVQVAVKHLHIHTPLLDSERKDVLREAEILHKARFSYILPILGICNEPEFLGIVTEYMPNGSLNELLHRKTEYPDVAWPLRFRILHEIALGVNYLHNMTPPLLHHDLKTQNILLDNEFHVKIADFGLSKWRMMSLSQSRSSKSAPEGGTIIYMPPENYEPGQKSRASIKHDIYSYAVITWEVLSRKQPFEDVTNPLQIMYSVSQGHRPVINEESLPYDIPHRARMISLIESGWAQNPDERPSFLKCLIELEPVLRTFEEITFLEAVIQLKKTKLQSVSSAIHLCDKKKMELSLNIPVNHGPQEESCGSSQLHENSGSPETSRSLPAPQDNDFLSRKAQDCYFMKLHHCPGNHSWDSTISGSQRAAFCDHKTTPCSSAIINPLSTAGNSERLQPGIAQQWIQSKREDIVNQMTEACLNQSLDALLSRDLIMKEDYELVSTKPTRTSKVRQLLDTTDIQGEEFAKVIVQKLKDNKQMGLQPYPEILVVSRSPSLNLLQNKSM

In the case of `Cn1cc(-n2cnc3c(NCc4nc5cc(Cl)c(Cl)cc5[nH]4)nc(N4CCOCC4)nc32)cn1`, the % of control in experiment [1] came out at 2.49%. As for `COCC(=O)NC/C=C/c1ccc2ncnc(Nc3ccc(Oc4ccc(C)nc4)c(C)c3)c2c1` [CP-724714], the % of control in experiment [2] came out at 94%.

In turn, `N#Cc1cccc(-c2c[nH]c3ncnc(N4CCOCC4)c23)c1` showed a % of control in experiment [3] of 71%. Consider `Cc1ccc(-c2ccc3c(ccc4sc5c(c43)NC[C@@H](C)NC5=O)n2)cn1`, for which the % of inhibition in experiment [4] was determined as 8%; in experiment [5], 74%. As for `Nc1cnc(N2CCc3cc(S(=O)(=O)Nc4c(F)cc(Cl)cc4F)cc(N4CCCC4=O)c32)nc1` [TP-020n], the % of control in experiment [6] amounted to 100%.
